This note sets out measurements from BindingDB's records for patent US12398120 (Bayer Aktiengesellschaft, 2025).

Test [1] addresses A disintegrin and metalloproteinase with thrombospondin motifs 7 (Homo sapiens, UniProt Q9UKP4). The test can be described thus: Assay for ADAMTS-7 Enzymatic Activity and Testing of Inhibitory Compounds. On the procedure: An additional carboxyl glutamic acid was added after the QXL520 quencher to increase substrate solubility. […] IC50 values were calculated from percentage of inhibition of ADAMTS-7 activity as a function of test compound concentration.

Test [2] addresses T1, A disintegrin and metalloproteinase with thrombospondin motifs 4 (Homo sapiens, UniProt O75173).
T1 sequence (O75173 whole entry): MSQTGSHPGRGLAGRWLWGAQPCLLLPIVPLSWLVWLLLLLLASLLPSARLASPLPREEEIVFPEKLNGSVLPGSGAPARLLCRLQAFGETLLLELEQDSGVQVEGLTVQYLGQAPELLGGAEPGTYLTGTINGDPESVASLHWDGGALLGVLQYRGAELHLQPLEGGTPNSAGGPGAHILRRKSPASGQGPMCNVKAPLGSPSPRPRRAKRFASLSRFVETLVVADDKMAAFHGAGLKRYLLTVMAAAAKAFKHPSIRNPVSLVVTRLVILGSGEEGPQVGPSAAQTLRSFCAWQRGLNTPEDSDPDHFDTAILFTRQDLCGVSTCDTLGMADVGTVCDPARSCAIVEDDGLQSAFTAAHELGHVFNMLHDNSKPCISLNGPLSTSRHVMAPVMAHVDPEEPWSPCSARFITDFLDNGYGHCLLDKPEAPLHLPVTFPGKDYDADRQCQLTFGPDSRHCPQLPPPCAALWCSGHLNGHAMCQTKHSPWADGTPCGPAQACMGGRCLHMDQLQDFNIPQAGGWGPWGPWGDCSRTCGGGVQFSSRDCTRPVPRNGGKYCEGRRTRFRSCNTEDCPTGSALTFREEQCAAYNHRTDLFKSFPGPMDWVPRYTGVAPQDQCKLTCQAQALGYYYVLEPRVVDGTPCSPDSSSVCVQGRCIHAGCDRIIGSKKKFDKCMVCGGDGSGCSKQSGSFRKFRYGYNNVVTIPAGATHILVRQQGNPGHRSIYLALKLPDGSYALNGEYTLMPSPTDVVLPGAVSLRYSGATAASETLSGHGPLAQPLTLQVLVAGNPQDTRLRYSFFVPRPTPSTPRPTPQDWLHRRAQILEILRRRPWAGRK

Sequence of A disintegrin and metalloproteinase with thrombospondin motifs 7 (Q9UKP4 whole entry): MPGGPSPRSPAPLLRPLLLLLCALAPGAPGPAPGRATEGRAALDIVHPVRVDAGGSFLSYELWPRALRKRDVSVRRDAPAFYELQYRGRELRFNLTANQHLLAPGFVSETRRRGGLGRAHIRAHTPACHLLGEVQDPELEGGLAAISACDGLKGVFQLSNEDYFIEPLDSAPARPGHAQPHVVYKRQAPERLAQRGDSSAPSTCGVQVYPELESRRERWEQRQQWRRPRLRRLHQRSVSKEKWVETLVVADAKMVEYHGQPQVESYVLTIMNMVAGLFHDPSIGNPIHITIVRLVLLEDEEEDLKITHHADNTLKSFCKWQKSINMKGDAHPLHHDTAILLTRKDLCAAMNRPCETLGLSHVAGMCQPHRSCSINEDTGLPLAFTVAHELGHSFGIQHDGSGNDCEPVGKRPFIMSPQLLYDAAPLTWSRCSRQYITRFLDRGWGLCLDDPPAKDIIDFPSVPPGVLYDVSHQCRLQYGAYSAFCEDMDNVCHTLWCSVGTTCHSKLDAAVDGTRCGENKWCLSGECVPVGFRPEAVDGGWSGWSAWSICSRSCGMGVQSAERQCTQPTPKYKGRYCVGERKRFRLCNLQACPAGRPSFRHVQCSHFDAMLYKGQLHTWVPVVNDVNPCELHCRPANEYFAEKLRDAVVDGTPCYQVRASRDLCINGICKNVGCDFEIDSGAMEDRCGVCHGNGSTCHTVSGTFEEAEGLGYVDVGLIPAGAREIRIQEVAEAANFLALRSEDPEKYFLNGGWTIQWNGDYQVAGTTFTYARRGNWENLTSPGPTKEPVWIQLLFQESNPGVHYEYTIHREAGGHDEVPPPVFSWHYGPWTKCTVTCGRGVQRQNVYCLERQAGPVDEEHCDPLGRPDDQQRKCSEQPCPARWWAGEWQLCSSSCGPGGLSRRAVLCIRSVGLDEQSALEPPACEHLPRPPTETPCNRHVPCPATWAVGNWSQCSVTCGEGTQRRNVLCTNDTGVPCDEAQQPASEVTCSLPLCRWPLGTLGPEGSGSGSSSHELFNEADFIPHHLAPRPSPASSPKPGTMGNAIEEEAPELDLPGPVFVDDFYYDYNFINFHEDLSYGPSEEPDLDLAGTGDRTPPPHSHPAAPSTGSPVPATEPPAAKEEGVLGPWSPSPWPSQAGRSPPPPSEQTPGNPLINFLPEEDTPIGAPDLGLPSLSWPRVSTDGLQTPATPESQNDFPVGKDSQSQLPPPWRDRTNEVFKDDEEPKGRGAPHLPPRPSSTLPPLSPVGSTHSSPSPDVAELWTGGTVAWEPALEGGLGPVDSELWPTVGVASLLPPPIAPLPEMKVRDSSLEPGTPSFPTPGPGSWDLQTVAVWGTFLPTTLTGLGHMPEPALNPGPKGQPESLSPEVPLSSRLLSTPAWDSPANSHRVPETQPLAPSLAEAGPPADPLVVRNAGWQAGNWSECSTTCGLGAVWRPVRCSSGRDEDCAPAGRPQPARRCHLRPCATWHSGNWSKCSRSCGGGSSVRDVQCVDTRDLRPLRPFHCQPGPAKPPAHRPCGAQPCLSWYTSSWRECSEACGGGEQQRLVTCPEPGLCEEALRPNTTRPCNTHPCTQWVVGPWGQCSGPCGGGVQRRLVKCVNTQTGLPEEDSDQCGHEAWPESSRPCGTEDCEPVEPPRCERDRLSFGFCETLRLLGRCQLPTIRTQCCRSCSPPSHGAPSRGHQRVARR

For orientation: IC50 means the concentration that gives 50% inhibition. Lower therefore signals greater potency. As for `Cc1ccc(-c2cc(F)ccc2C(=O)NCC2(c3nccn3C)NC(=O)NC2=O)cc1` (single isomer, unassigned) [US12398120, Example 147], the figures for the IC50 in test [1] and in test [2] were 4.2 nM and 1700 nM, respectively.

For `CC(C)C1(CNC(=O)c2ccc(F)c(F)c2-c2ccc(C(F)(F)F)cc2)NC(=O)NC1=O` (single isomer, unassigned) [US12398120, Example 214], the IC50 turned out to be 8.97 nM in test [1] and 37500 nM in test [2].

In the case of `Cc1ccc(-c2cc(F)ccc2C(=O)NC[C@@]2(C3CC3)NC(=O)NC2=O)cc1` [US12398120, Example 100], the IC50 came out at 45 nM in test [1] and 8100 nM in test [2].
